From patent publication US12668585B2, “Substituted pyrimidinyl-pyrazoles as CDK2 inhibitors” (BLUEPRINT MEDICINES CORPORATION, priority 2021, dated 2026) come the findings set out here.

A value given as a limit tells only on which side of the number the result lay.

In assay [1] the target is T1, CDK2/Cyclin E (Homo sapiens, UniProt P24941).
T1 construct: purchased Eurofins 14-475
The assay is described as follows: Biochemical CDK inhibition assay (Caliper mobility shift), CDK2/Cyclin E. Particulars: read-out: CDK2/cyclin E1 IC50. Here is the method:
(§1) Inhibitory effects of the compounds of the disclosure were measured in biochemical assays that measure the enzymatic phosphorylation activity of CDK enzyme in complex of Cyclin proteins phosphorylates 7.5 micromolar fluorescently labelled peptide substrate, 5-FAM-QSPKKG-CONH2, (FL-Peptide 18, Perkin Elmer, 760362) in the presence of adenosine-5′-triphosphate (ATP) and varying concentrations of the test compound in 100 mM 2-[4-(2-hydroxyethyl)piperazin-1-yl] ethanesulfonic acid (HEPES), pH 7.5, 10 mM MgCl2, 0.015% Brij-35, 1 mM dithiothreitol (DTT), 1.0% dimehylsulfoxide (DMSO). […] Reactions proceeded until between 10% to 20% total peptides were phosphorylated at room temperature (25° C.) and were terminated with 35 mM 2,2′,2″,2′″-(ethane-1,2-diyldinitrilo)tetraacetic acid (EDTA). Product was detected using the Caliper mobility shift detection method where the phosphorylated peptide (product) and substrate were electrophoretically separated and measured. Percent activity was plotted against log concentration of compound and points to generate an apparent IC50. The following CDK enzymes in complex with different cyclin proteins were used in these assays: • CDK1/Cyclin B1, GST-tag (BPS, 40454), 1.5 nM used in the assay • CDK2/Cyclin E (Eurofins, 14-475), 1.25 nM used in the assays
(§2) For inhibitory activity against CDK2/Cyclin E mutant, the following designations are used: ≤10 nM=A; >10-20 nM=B; >20-30 nM=C; >30-100 nM=D and >100=E. For inhibition CDK1/Cyclin B1, GST-tag: ≥500 nM=A; <100-500 nM=B; <100 nM=C.

In assay [2] the target is T2, CDK1/Cyclin B1, GST-tag (Homo sapiens, UniProt P06493).
T2 construct: GST; purchased BPS 40454
T2 sequence (P06493 whole entry): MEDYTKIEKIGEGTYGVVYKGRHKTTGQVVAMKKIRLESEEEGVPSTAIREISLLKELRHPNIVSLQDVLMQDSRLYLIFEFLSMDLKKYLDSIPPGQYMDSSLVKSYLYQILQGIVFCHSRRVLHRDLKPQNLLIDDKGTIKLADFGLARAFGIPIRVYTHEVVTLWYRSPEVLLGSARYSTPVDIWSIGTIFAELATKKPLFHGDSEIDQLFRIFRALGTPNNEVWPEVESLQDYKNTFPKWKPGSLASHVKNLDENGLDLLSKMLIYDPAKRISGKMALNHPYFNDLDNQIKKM
T2 sequence (P14635 whole entry partner): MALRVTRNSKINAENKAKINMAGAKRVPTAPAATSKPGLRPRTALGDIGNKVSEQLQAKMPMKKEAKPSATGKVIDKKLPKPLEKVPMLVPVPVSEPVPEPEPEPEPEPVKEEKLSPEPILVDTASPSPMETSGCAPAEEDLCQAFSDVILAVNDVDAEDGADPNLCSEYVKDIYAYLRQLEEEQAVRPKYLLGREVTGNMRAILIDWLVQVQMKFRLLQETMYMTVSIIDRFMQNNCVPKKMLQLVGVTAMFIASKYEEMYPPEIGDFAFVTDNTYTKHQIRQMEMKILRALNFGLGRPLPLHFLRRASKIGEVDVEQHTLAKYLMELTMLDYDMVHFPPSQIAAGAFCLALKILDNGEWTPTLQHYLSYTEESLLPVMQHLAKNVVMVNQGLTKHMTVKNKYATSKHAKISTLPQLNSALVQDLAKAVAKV
The assay is described as follows: Biochemical CDK inhibition assay (Caliper mobility shift), CDK1/Cyclin B1. Here is the method:
as §1, §2

Take `CCc1cnc(Nc2ccc(S(N)(=O)=O)cc2F)nc1-c1cnn(CC(C)(C)O)c1` [Example 42, 4-((5-ethyl-4-(1-(2-hydroxy-2-methylpropyl)-1H-pyrazol-4-yl)pyrimidin-2-yl)amino)-3-fluorobenzenesulfonamide]: the IC50 in assay [1] was 0.02 to 0.03 µM; in assay [2], at least 0.5 µM.

With `NS(=O)(=O)c1ccc(Nc2ncc(C(F)(F)F)c(-c3cnn(C4COC4)c3)n2)c(F)c1` [Example 43, 3-fluoro-4-((4-(1-(oxetan-3-yl)-1H-pyrazol-4-yl)-5-(trifluoromethyl)pyrimidin-2-yl)amino)benzenesulfonamide], the IC50 in assay [1] was 0.02 to 0.03 µM; in assay [2], at least 0.5 µM.

As for `CC(C)(O)Cn1cc(-c2nc(Nc3ccc(S(N)(=O)=O)cc3Cl)ncc2F)cn1` [Example 44, 3-chloro-4-((5-fluoro-4-(1-(2-hydroxy-2-methylpropyl)-1H-pyrazol-4-yl)pyrimidin-2-yl)amino)benzenesulfonamide], the IC50 in assay [1] is 0.02 to 0.03 µM; in assay [2], at least 0.5 µM.

For `Cc1cc(Nc2ncc(C(F)(F)F)c(-c3cnn(CC(C)(C)O)c3)n2)c(F)cc1S(N)(=O)=O` [Example 45, 5-fluoro-4-((4-(1-(2-hydroxy-2-methylpropyl)-1H-pyrazol-4-yl)-5-(trifluoromethyl)pyrimidin-2-yl)amino)-2-methylbenzenesulfonamide], the IC50 in assay [1] was 0.02 to 0.03 µM; in assay [2], at least 0.5 µM.

Consider `COc1cc(S(N)(=O)=O)ccc1Nc1ncc(F)c(-c2cnn(CC(C)(C)O)c2)n1` [Example 46, 4-((5-fluoro-4-(1-(2-hydroxy-2-methylpropyl)-1H-pyrazol-4-yl)pyrimidin-2-yl)amino)-3-methoxybenzenesulfonamide], for which the IC50 in assay [1] was 0.03 to 0.1 µM; in assay [2], at least 0.5 µM.

For the compound `NS(=O)(=O)c1ccc(Nc2ncc(C(F)(F)F)c(-c3cnn(C4CCOCC4)c3)n2)c(F)c1` [Example 47, 3-fluoro-4-((4-(1-(tetrahydro-2H-pyran-4-yl)-1H-pyrazol-4-yl)-5-(trifluoromethyl)pyrimidin-2-yl)amino)benzenesulfonamide], the IC50 is at most 0.01 µM in assay [1] and at least 0.5 µM in assay [2].
